The record followed here is patent US20250282742A1, “BENZOFURAN DERIVATIVES FOR TARGETING AUTOPHAGY” (Automera PTE. LTD, priority 2024, published 2025).

Molecules are shown by their SMILES.

T1 sequence (Q13501 whole entry, species assumed): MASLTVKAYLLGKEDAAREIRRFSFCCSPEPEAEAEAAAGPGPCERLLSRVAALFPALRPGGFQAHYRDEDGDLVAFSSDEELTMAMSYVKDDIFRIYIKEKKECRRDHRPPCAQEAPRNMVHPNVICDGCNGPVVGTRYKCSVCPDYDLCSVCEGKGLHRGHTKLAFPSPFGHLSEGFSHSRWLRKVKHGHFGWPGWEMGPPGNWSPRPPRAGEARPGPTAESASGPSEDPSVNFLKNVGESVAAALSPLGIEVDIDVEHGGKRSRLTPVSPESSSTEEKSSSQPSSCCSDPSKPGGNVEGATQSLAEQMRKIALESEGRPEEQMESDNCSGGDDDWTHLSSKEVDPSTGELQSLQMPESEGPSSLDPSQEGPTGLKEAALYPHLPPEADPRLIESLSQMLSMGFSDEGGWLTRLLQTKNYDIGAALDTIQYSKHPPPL

One assay has as its target T1, Recombinant p62 protein (Homo sapiens, UniProt Q13501).
T1 construct: Recombinant p62 protein was buffer exchanged into Biacore SPR running buffer
As to the kind of experiment: Surface plasmon resonance (SPR) compound binding to immobilised p62. The following applies: recombinant p62, 15° C. As to the method:
Example 28: Surface Plasmon Resonance (SPR) Analysis
Recombinant p62 protein was buffer exchanged into Biacore SPR running buffer (Cytiva 100671) using the Slide-A-Lyzer Mini Dialysis system 7K MWCO (Thermo Fisher Scientific, Cat no. 69560). The final protein concentration was determined using the Nanodrop One spectrophotometer (Thermo Fisher Scientific, cat no. ND-ONE-W), with calibration for the dialysis buffer.
The prepared protein was diluted in sodium acetate buffer (NaAc, pH 5.5, Cytiva) to concentrations ranging from approximately 0.25-40 μg/mL. Post-immobilization, the protein required approximately 16 hours of equilibration in running buffer supplemented with 1% DMSO at 15° C. to ensure adequate surface equilibration and protein reorganization.
All SPR experiments were conducted at a constant temperature of 15° C. The SPR chip surface was activated using EDC/NHS for a contact time of 6-10 min at a flow rate of 10 μL/min. This was followed by protein immobilization for 2100 seconds and ethanolamine capping for 420 seconds, both at the same flow rate. Immediately after immobilization, the NH2—REEE peptide was analyzed in Single Cycle Kinetics mode (SCK) to verify surface activity, ensuring it binds the sample with the published affinity (−20 μM by SPR).
For general compound binding studies, experiments were performed at 15° C. using a running buffer composed of 10 mM HEPES, 150 mM NaCl, 1 mM DTT, 0.05% Tween 20, and 1% DMSO at pH 7.4. The test compound was initially prepared at a 20 mM concentration in DMSO and subsequently titrated in 2-fold dilutions. For each assay, 2 μL of the compound was mixed with 198 μL of the running buffer, and the mixture was thoroughly pipetted approximately 15 times for homogenization.
A series of blank injections (0 μM concentration) were included for double referencing, with at least 8 or 16 per plate depending on the format. Typical injection parameters were 120 seconds for association and 180 seconds for dissociation at a flow rate of […]. A four-point solvent correction was prepared with DMSO concentrations ranging from 2% to 0.5% in the buffer. Post each compound injection, the system's needles were washed with 50% DMSO.
Analysis of the SPR data was conducted using the Cytiva Evaluation software. The binding levels at the late time-point of each interaction were corrected for reference, then normalized to percentage bound values to account for variations in immobilization levels, protein molecular weight, and compound molecular weight.
Compound binding studies were carried out according to experimental procedures above and SPR % occupancy was determined and summarized in Table 7.
On the technique in general: Surface plasmon resonance follows binding to a sensor surface in real time, without labels.
Consider `O=C(NCCO)c1ccc2cc(Cc3ccccc3)oc2c1` [Compound 6, 2-benzyl-N-(2-hydroxyethyl)benzofuran-6-carboxamide], for which the receptor occupancy at 100 µM was under 30%. Still for that read-out and setting: next, `O=C(CCO)Nc1ccc2cc(Cc3ccccc3)oc2c1` [Compound 11, N-(2-benzylbenzofuran-6-yl)-3-hydroxypropanamide]: under 30%.

For `OCCNCc1ccc2cc(Cc3ccncc3)oc2c1` [Compound 16, 2-(((2-(pyridin-4-ylmethyl)benzofuran-6-yl)methyl)amino)ethan-1-ol], the receptor occupancy at 100 µM lay within 30 to 70%. Take `O=S(=O)(c1ccccc1)c1cc2ccc(CNCCO)cc2o1` [Compound 18, 2-(((2-(phenylsulfonyl)benzofuran-6-yl)methyl)amino)ethan-1-ol]: the receptor occupancy at 100 µM was in the range of 30 to 70%. On the same count and under the same terms, in the case of `O=S(=O)(Nc1ccccc1)c1cc2ccc(CNCCO)cc2o1` [Compound 19, 6-(((2-hydroxyethyl)amino)methyl)-N-phenylbenzofuran-2-sulfonamide] it was 30 to 70%. Turning to `CN(C)C(=O)Cc1cc2ccc(CNCCO)cc2o1` [Compound 29, 2-(6-(((2-hydroxyethyl)amino)methyl)benzofuran-2-yl)-N,N-dimethylacetamide], the receptor occupancy at 100 µM was under 30%. For `O=C(c1cc2ccc(CNCCO)cc2o1)N1CCCCC1` [Compound 34, (6-(((2-hydroxyethyl)amino)methyl)benzofuran-2-yl)(piperidin-1-yl)methanone], the receptor occupancy at 100 µM is under 30%. On the same count and under the same terms, next, `OCCNCc1cc2oc(Cc3ccccc3)cc2cc1F` [Compound 36, 2-(((2-benzyl-5-fluorobenzofuran-6-yl)methyl)amino)ethan-1-ol]: 30 to 70%; `OCCNCc1ccc2cc(Cc3ccccc3)oc2c1F` [Compound 38, 2-(((2-benzyl-7-fluorobenzofuran-6-yl)methyl)amino)ethan-1-ol]: 30 to 70%. For the compound `OCCNCc1cccc2oc(Cc3ccccc3)cc12` [compound 4], the receptor occupancy at 100 µM lay within 30 to 70%. Same read-out and setting: in the case of `OCCNCc1ccc2cc(Cc3c[nH]cn3)oc2c1` [compound 23] it was under 30%; in that of `OCCNCc1ccc2cc(CN3CCCC(O)C3)oc2c1` (stereo not drawn) [compound 28], under 30%. On the same count and under the same terms, in the case of `OCCNCc1ccc2cc(CNC3CCOCC3)oc2c1` [compound 32] it was under 30%; in that of `OCCNCc1ccc2oc(Cc3ccccc3)cc2c1` [compound 45], 30 to 70%; in that of `OCCNCc1ccc2nc(Cc3ccccc3)oc2c1` [compound 47, 2-(((2-benzylbenzo[d]oxazol-6-yl)methyl)amino)ethan-1-ol], under 30%.

For `OCCNCc1ccc2nc(Cc3ccccc3)sc2c1` [compound 48, 2-(((2-benzylbenzo[d]thiazol-6-yl)methyl)amino)ethan-1-ol], the receptor occupancy at 100 µM is 30 to 70%.

With `O=C(NCCO)c1ccc2cc(CCc3ccc(F)cc3)oc2c1` [compound 50, 2-(4-fluorophenethyl)-N-(2-hydroxyethyl)benzofuran-6-carboxamide], the receptor occupancy at 100 µM was under 30%.

The subject of another assay is p62 puncta in HeLa cells. The experiment in a line: p62 puncta assay (immunocytochemistry and imaging, EVOS M7000 or Operetta CLS). It counts as cell-based. The following applies: Homo sapiens, fold change in p62 puncta levels relative to DMSO control, 24 hr. As to the method:
HeLa cells were seeded in coated 96-well plates (10,000 cells) and allowed to adhere overnight. After 24 hours of treatment with either vehicle (DMSO) or test compounds, the media was discarded, and cells were rinsed with ice-cold 1×PBS before fixation by 4% formaldehyde or paraformaldehyde for 20 min. Cells were then washed with 1×PBS and permeabilized with 0.1% Triton X-100 in PBS for 20 min and blocked with Blocking Buffer in PBS for 1 hour. The cells were incubated thereafter for 1 hour with anti-p62 primary antibody in Blocking Buffer, followed by incubation with secondary antibody for 1 hour. DAPI dye was used to visualize nuclei of fixed cells. The blocking buffer used were 5% Fetal Bovine Serum (FBS, ThermoFIsher Scientific, 10270106) and Li-cor Intercept (PBS) Blocking Buffer (Li-cor, 927-70001). The primary antibody used was mouse anti-p62 primary antibody (Novus Biologicals, H00008878-MO1). The secondary antibodies used were goat anti-mouse Alexa Fluor Plus 488 secondary antibody (Invitrogen, GOXMS) and goat anti-mouse Alexa Fluor 488 secondary antibody (Invitrogen, A-11029). The DAPI dyes used were DAPI dye (Invitrogen, 62248) and DAPI dye (Invitrogen, D1306).
For the EVOS M7000 System, cells were imaged on the EVOS M7000 microscope using a 20× air objective (Nikon, N.A 0.45). DAPI and p62 channels were illuminated with LED light cubes using integrated hard-coated filter sets for DAPI (357/447 nm) and GFP (470/525 nm) respectively. Images were analysed for p62 puncta count on the Celeste 6.0 software.
For the Operetta CLS System, cells were imaged on the Operetta CLS using a 63× water objective on the DAPI and Alexa 488 channels. Images were analysed for p62 puncta count on the Harmony 5.1 software.
HeLa cells were treated with compounds for 24 hours to evaluate the effect of these compounds on p62 puncta activity. The resulting changes in levels of p62 puncta were assessed by imaging, either on the EVOS M7000 or Operetta CLS systems as described in experimental procedures. The fold change of p62 puncta levels induced by compound treatment relative to vehicle control (DMSO) was determined and summarized in Table 10.
With `OCCNCc1ccc2oc(Cc3ccccc3)cc2c1` [compound 45], the fold induction – broadly, the ratio of treated to control signal – at 5 µM was under 2. On the same count and under the same terms, next, `CC(C)(C)OC(=O)N1CCN(CCOCCNCc2ccc3cc(CCc4ccc(F)cc4)oc3c2)CC1` [compound 147]: over 2; `CC(C)(C)OC(=O)NCCCCCOCCNCc1ccc2cc(CCc3ccc(F)cc3)oc2c1` [compound 148]: under 2; `CC(C)(C)OC(=O)NCCCCCCCCOCCNCc1ccc2cc(CCc3ccc(F)cc3)oc2c1` [compound 149]: over 2. Same read-out and setting: in the case of `CC(C)(C)OC(=O)Nc1ccc(COCCNCc2ccc3cc(CCc4ccc(F)cc4)oc3c2)cc1` [compound 151] it was over 2; in that of `CC(C)(C)OC(=O)N1CCC(CCOCCNCc2ccc3cc(CCc4ccc(F)cc4)oc3c2)CC1` [compound 152], over 2; in that of `CC(C)(C)OC(=O)Nc1cccc(COCCNCc2ccc3cc(CCc4ccc(F)cc4)oc3c2)c1` [compound 153], over 2. The same measure, in the same setting: in the case of `CC(C)(C)OC(=O)NCCCOCCNCc1ccc2cc(CCc3ccc(F)cc3)oc2c1` [compound 154] it was over 2; in that of `CC(C)(C)OC(=O)N1CC(COCCNCc2ccc3cc(CCc4ccc(F)cc4)oc3c2)C1` [compound 155], over 2; in that of `CC(C)(C)OC(=O)NC1(COCCNCc2ccc3cc(CCc4ccc(F)cc4)oc3c2)CC1` [compound 156], over 2.

In turn, `CC(C)(C)OC(=O)N1CCC(OCCNCc2ccc3cc(CCc4ccc(F)cc4)oc3c2)C1` (stereo not drawn) [compound 157] showed a fold induction at 5 µM of over 2. Compound `CC(C)(C)OC(=O)N1CC(OCCNCc2ccc3cc(CCc4ccc(F)cc4)oc3c2)C1` [compound 158] gave a fold induction at 5 µM of over 2. On the same count and under the same terms, in the case of `COC(=O)c1ccc(OCCOCCNCc2ccc3cc(CCc4ccc(F)cc4)oc3c2)cc1` [compound 159] it was over 2; in that of `COC(=O)CCOCCOCCOCCNCc1ccc2cc(CCc3ccc(F)cc3)oc2c1` [compound 160], under 2; in that of `C#CCCCCCCCCOCCNCc1ccc2cc(CCc3ccc(F)cc3)oc2c1` [compound 161], over 2. Same read-out and setting: next, `COC(=O)c1ccc(N2CCC(COCCNCc3ccc4cc(CCc5ccc(F)cc5)oc4c3)CC2)cc1` [compound 162]: over 2. The compound `CC(C)(C)OC(=O)NCC1CC(COCCNCc2ccc3cc(CCc4ccc(F)cc4)oc3c2)C1` (stereo not drawn) [compound 163] yielded a fold induction at 5 µM of over 2. For the compound `C#Cc1ccc(COCCNCc2ccc3cc(CCc4ccc(F)cc4)oc3c2)cc1` [compound 164], the fold induction at 5 µM was over 2.

Regarding `CC(C)(C)OC(=O)N1CCC(COCCOCCNCc2ccc3cc(CCc4ccc(F)cc4)oc3c2)CC1` [compound 165], the fold induction at 5 µM was over 2. On the same count and under the same terms, in the case of `CC(C)(C)OC(=O)NC1CCN(CCOCCNCc2ccc3cc(CCc4ccc(F)cc4)oc3c2)CC1` [compound 166] it was over 2; in that of `CC(C)(C)OC(=O)NC[C@H]1CC[C@H](COCCNCc2ccc3cc(CCc4ccc(F)cc4)oc3c2)CC1` [compound 167], over 2.

The compound `CC(C)(C)OC(=O)N[C@H]1CC[C@H](COCCNCc2ccc3cc(CCc4ccc(F)cc4)oc3c2)CC1` [compound 168] registered a fold induction at 5 µM of over 2.
